This note sets out measurements from patent publication US20240415800A1, “DOPA AND CAFFEIC ACID ANALOGS AS NOVEL GCPII INHIBITORS” (The Johns Hopkins University, priority 2021, published 2024).

Several values for one entry are separate records, joined by “and”; a condition that tells them apart may be missing. Equal entries are not always repeated. Entries after “also recorded” stand apart in the source; their conditions may differ. Where two headings read alike, the source gives them in different places.

The target in series [1] is T1, Recombinant human GCPII enzyme (Homo sapiens (Human), UniProt Q04609). In words: GCPII activity assay (IC50, radiolabelled NAAG hydrolysis). As to conditions: for GCPII inhibitory potency (in words): SAR of L-DOPA analogs. The format is biochemical.
T1 sequence (Q04609 whole entry): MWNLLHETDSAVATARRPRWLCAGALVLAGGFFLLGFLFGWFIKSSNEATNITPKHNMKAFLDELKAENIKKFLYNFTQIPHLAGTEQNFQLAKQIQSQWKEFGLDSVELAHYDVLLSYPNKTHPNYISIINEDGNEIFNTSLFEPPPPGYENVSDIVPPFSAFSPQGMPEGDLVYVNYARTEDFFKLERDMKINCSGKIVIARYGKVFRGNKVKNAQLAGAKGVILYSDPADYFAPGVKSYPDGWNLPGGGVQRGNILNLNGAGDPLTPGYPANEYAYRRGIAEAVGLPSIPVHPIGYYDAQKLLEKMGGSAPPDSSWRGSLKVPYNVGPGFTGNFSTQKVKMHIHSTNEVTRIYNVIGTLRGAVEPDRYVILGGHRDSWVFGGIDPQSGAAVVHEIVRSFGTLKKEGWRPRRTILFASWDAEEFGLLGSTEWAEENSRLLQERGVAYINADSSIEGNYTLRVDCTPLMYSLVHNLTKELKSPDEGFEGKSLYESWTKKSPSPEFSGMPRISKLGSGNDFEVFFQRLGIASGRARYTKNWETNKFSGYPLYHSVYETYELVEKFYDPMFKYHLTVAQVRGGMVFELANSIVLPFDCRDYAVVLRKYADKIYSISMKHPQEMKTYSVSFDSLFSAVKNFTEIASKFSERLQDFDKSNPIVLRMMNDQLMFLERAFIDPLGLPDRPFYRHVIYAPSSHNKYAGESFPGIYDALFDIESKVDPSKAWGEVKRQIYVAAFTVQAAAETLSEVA
A short description of series [2]: Pharmacokinetics of D-DOPA in mouse plasma and brain (IV, PO, IN; Example 1). As to conditions: for Kp: brain/plasma, read-out: AUCBrain/Plasma (brain penetration index). The format is in vivo, CD1 mice.
In series [3] the target is GCPII activity in the brain (Mus musculus (Mouse), UniProt O35409). Put plainly: GCPII target engagement: GCPII activity in brain after dosing. The class given is in vivo, CD1 mouse.
Chain of GCPII activity in the brain (O35409 whole entry): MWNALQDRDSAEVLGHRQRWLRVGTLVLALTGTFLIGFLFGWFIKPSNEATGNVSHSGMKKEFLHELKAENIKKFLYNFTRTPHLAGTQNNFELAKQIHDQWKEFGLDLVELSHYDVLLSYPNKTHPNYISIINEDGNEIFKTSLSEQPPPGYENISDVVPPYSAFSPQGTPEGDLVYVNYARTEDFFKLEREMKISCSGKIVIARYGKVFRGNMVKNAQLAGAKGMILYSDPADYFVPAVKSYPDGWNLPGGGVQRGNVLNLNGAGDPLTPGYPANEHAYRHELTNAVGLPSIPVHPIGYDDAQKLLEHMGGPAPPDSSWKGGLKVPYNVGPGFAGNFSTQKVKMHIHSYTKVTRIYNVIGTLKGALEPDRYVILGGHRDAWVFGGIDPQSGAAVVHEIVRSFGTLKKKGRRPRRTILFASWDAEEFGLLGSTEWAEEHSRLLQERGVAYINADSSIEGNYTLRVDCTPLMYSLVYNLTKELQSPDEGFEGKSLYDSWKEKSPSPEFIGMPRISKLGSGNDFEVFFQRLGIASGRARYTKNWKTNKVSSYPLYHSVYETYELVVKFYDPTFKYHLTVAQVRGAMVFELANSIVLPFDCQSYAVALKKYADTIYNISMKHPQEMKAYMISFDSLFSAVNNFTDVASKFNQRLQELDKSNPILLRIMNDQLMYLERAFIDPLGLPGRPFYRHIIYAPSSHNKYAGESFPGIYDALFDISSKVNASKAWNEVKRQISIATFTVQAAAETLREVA
Series [4] is described as follows: Time-dependent PK of D-DOPA with or without sodium benzoate (Example 2). The class given is in vivo, CD-1 mice. Here is the method:
All of the formulations were freshly prepared prior to the dosing. […] Tissue and plasma collection were carried out as described above. […] Van […] et al., 2020; Wang et al., 2015. While D-/L-DOPA required derivatization with acetic anhydride, caffeic acid was analyzed using a single step protein precipitation method. […] Plasma and brain tissue samples were processed by matching the dilutions of calibration standards of the respective tissue. […] The solutions were vortexed for 15 secs and then allowed to sit at room temperature for 45 mins. These mixtures were vortexed again for 10 sec and centrifuged at 10,000 g for 10 mins to collect the supernatant. A 50 μL aliquot of the supernatant was transferred to 250 μL polypropylene autosampler vials sealed with Teflon caps. 2 μL of the sample was injected into the LC/MS/MS system for analysis. Chromatographic analysis was performed using Thermo Scientific Vanquish UPLC system consisting of an analytical pump and an autosampler coupled with a […] spectrometer. For all analytes, the mobile phase used for the chromatographic separation composed of 0.1% formic acid in acetonitrile and 0.1% formic acid in water delivered as a gradient while pumping a flow rate of 0.400 mL/min. […] The analyte was monitored using ThermoScientific […] triple-quadrupole mass-spectrometric detector equipped with an electrospray interface, and operated in negative ion mode. The instrument was controlled by Thermo Scientific Xcalibur (version 4.2.47) software. […] Plasma concentrations (nmol/mL) and brain tissue concentrations (nmol/g) were determined and plots of mean plasma or brain concentrations versus time were constructed.

Series [5] in a line: Mouse two-point oral pharmacokinetic screening. Further details: species or system CD-1 mice. The following applies: in vivo, 50 mg/kg. The protocol: Male CD-1 mice between 25-30 g were obtained from Harlan and maintained on a 12 h light-dark cycle with ad libitum access to food and water. […] All of the formulations were freshly prepared prior to the dosing. […] For the collection of plasma and brain tissue, animals were euthanized with CO2, and blood samples were collected in heparinized microtubes by cardiac puncture. Brains were dissected and immediately flash frozen (-80° C.). […] Van […] et al., 2020; Wang et al., 2015. While D-/L-DOPA required derivatization with acetic anhydride, caffeic acid was analyzed using a single step protein precipitation method. […] Plasma and brain tissue samples were processed by matching the dilutions of calibration standards of the respective tissue. […] The solutions were vortexed for 15 secs and then allowed to sit at room temperature for 45 mins. These mixtures were vortexed again for 10 sec and centrifuged at 10,000 g for 10 mins to collect the supernatant. A 50 μL aliquot of the supernatant was transferred to 250 μL polypropylene autosampler vials sealed with Teflon caps. 2 μL of the sample was injected into the LC/MS/MS system for analysis. […] Then, 2 μL of the sample was analyzed using LC/MS/MS system as mentioned above. Plasma concentrations (nmol/mL) and brain tissue concentrations (nmol/g) were determined and plots of mean plasma or brain concentrations versus time were constructed.

Series [6] can be described thus: In vitro metabolic stability in mouse plasma and brain homogenate. As to conditions: 10 μM, 1 h. The format is in vitro ADME. Here is the method:
Zimmermann et al., 2018. For the brain homogenates, washed tissues were diluted 10-fold in 0.1 M potassium phosphate buffer and homogenized using a probe sonicator. Crude homogenate and plasma were aliquoted to 1 mL and spiked with a final assay concentration of 10 μM of the respective catechol followed by incubation in an orbital shaker at 37° C. for 1 h (in triplicate). An aliquot from each incubated homogenate was quenched with three volumes of acetonitrile containing the internal standard (IS; losartan: […]) at predetermined time points (0, 30, 60 min). Samples were vortex-mixed for 30 secs and centrifuged at 10,000×g for 10 min at 4° C.
Disappearance of respective catechol was monitored on a Dionex Ultimate 3000 ultra-high-performance LC system coupled with Q Exactive Focus orbitrap mass spectrometer (Thermo Fisher Scientific Inc., Waltham MA). The separation of analytes was achieved using the Agilent Eclipse Plus column (100×2.1 mm i.d.; maintained at 35° C.) packed with a 1.8 μm C18 stationary phase. The mobile phase consisted of 0.1% formic acid in water and 0.1% formic acid in acetonitrile. Pumps were operated at a flow rate of 0.4 mL/min for 9 min using gradient elution. […] Quantification of the compounds was performed in the full-scan mode (from m/z 50 to 1600) by comparing t=0 samples with t=30- and 60-min samples.

The nature of series [7]: Solubility of D-DOPA in intranasal dosing vehicle. The format is physicochemical.
For series [8], the target named is T1, Recombinant human GCPII enzyme. The following applies: NAAG saturation, D-DOPA 0-400 nM.
For series [9] the target is unchanged. In words: biochemical.
Where [10] appears, read: Table 1, catechol scaffolds for GCPII inhibition.
[11] abbreviates: Table 2-1, human recombinant GCPII.
[12] abbreviates: PO 50 mg/kg + sodium benzoate 400 mg/kg IP, brain.

As for `O=C(O)/C=C/c1ccc(O)c(O)c1` [Caffeic acid], the IC50 (in general, the concentration at which inhibition is half-maximal) in series [1] (GCPII) is 300 nM; in series [1] (setting [10]), 100 nM. Also, the “GCPII inhibitory potency (in words)” value in [1] is recorded as “sub-micromolar potencies”.

Turning to `N[C@@H](Cc1ccc(O)cc1)C(=O)O` [Compound 2-2, Tyr], in [1], the “GCPII inhibitory potency (in words)” value is recorded as “substantial loss of potency”. The concentration for half-maximal inhibition (IC50) in [1] (setting [11]) stood at 100000 nM.

In the case of `COc1ccc(C[C@H](N)C(=O)O)cc1OC` [Compound 2-3], the “GCPII inhibitory potency (in words)” value in [1] is on record as “substantial loss of potency”. The half-inhibitory concentration (IC50) in series [1] (setting [11]) was > 100000 nM.

As for `NC(Cc1ccc(=O)n(O)c1)C(=O)O` (stereo not drawn) [Compound 2-4], the “GCPII inhibitory potency (in words)” value in series [1] was “complete loss of potency”. The IC50 in series [1] (setting [11]) is > 100000 nM.

Take `C[C@](N)(Cc1ccc(O)c(O)c1)C(=O)O` [Compound 2-5]: the “GCPII inhibitory potency (in words)” value in series [1] is on record as “loss of potency”. The IC50 in [1] (setting [11]) is > 100000 nM.

As to `CC(=O)N[C@@H](Cc1ccc(O)c(O)c1)C(=O)O` [Compound 2-6], the “GCPII inhibitory potency (in words)” value in [1] is reported as “loss of potency”. For the same compound, the 50% inhibitory concentration (IC50) in series [1] (setting [11]) is 20000 nM.

As for `NCCc1ccc(O)c(O)c1` [Compound 2-7, Dopamine], the “GCPII inhibitory potency (in words)” value in series [1] is “loss of potency”. In addition, the IC50 in series [1] (setting [11]) is > 100000 nM.

With `O=C(O)CCc1ccc(O)c(O)c1` [Compound 2-8], the 50% inhibitory concentration (IC50) in [1] (setting [11]) was found to be 4000 nM. Moreover, the “decrease in inhibitory potency” value in series [1] (relative to L-DOPA) is listed as 6.7 fold.

`N[C@H](Cc1ccc(O)c(O)c1)C(=O)O` [D-DOPA, D-3,4-dihydroxyphenylalanine]: the half-maximal inhibitory concentration (IC50) in [1] (GCPII) came out at 200 nM. Besides, the “GCPII inhibitory potency (in words)” value in [1] was “sub-micromolar potencies”. Also, the Kp was 0.051 in series [2] (CD1, mouse, other: intranasal, 3.4 mg/kg, IN 3.4 mg/kg); < 0.05 in series [2] (CD1, mouse, po, 30 mg/kg, PO 30 mg/kg); 0.03 in series [4] (CD-1, mouse, brain/plasma, PO 50 mg/kg + sodium benzoate 400 mg/kg IP, read-out: brain penetration index). The Cmax in series [2] (CD1, mouse, inhaled or intranasal, IN 3.4 mg/kg, plasma, read-out: Cmax) is 4.45 ± 0.971 µM; in series [2] (CD1, mouse, PO 30 mg/kg, plasma, read-out: Cmax), 43.1 ± 2.58 µM; in series [2] (IN 3.4 mg/kg, brain), 0.102 ± 0.00823 nmol/g; in series [2] (PO 30 mg/kg, brain) it was 0.472 ± 0.124 nmol/g; in series [2] (mouse, IV 10 mg/kg, plasma, CD1 mice, read-out: Cmax), 61.1 ± 5.09 µM; in series [4] (CD-1, mouse, PO 50 mg/kg monotherapy, brain, read-out: Cmax), 1.74 µM. For the same compound, the Cmax in series [4] (setting [12]) was 3.2 nmol/g and 3.20 nmol/g; in series [4] (PO 50 mg/kg + sodium benzoate 400 mg/kg IP, plasma, read-out: Cmax), 151 µM; in series [4] (PO 50 mg/kg monotherapy, brain), 1.74 nmol/g. Moreover, the AUC0-t in series [2] (CD1, mouse, plasma, inhaled or intranasal, 3.4 mg/kg, IN 3.4 mg/kg, plasma, read-out: AUC0-t) was determined as 2.7 ± 0.508 µM·h; in [2] (CD1, mouse, plasma, iv, 10 mg/kg, IV 10 mg/kg, plasma, read-out: AUC0-t) it was 30.5 ± 2.04 µM·h; in series [2] (IN 3.4 mg/kg, brain), 0.139 ± 0.0268 nmol·h/g; in series [2] (PO 30 mg/kg, brain) it was 1.09 ± 0.103 nmol·h/g; in series [2] (PO 30 mg/kg, plasma), 32.92 ± 0.731 µM·h. The Tmax (usually the time at which the peak concentration occurs) in series [2] (CD1, mouse, plasma, iv, 10 mg/kg, IV 10 mg/kg, plasma, read-out: Tmax) was ≤ 0.0833 h; in series [2] (CD1, mouse, plasma, iv, 10 mg/kg, IV 10 mg/kg, plasma, read-out: Tmax (h)) it was 0.0833 h; in series [2] (IN 3.4 mg/kg, plasma), 0.250 h; in series [4] (PO 50 mg/kg monotherapy, brain), 30 min. Besides, the bioavailability (usually the share of a dose that reaches the circulation, judged against a reference dose that is usually intravenous) in series [2] (CD1, mouse, plasma, PO 30 mg/kg vs IV 10 mg/kg, read-out: Bioavailability (% F)) worked out at 36%. Moreover, the “GCPII activity in brain (cortex)” value in [3] (PO 30 mg/kg, 1 h post dose) is recorded as “significant inhibition of GCPII activity”. The “GCPII activity in brain” value is recorded as “significantly outperformed D-DOPA alone; also recorded: significant inhibition of GCPII activity; also recorded: significantly outperformed D-DOPA mono-therapy” in [3] (PO 50 mg/kg + sodium benzoate 400 mg/kg IP, 30 min); “significant inhibition of GCPII activity” in [3] (PO 50 mg/kg monotherapy, 30 min, vs untreated); “insufficient exposures to the brain to affect GCP II activity” in [3] (intranasal dosing). Also, the AUC in series [4] (CD-1, mouse, plasma, iv, 10 mg/kg, IV 10 mg/kg, plasma, read-out: AUCIV) amounted to 30.5 µM·h; in series [4] (CD-1, mouse, plasma, oral, PO 50 mg/kg + sodium benzoate 400 mg/kg IP, plasma, read-out: AUCPlasma), 185 µM·h; in [4] (CD-1, mouse, plasma, po, 50 mg/kg, PO 50 mg/kg + sodium benzoate 400 mg/kg IP, plasma, read-out: AUCPlasma), 185 µM·h; in series [4] (CD-1, mouse, plasma, po, 50 mg/kg, PO 50 mg/kg monotherapy, plasma, read-out: AUCPO-plasma), 72.7 µM·h. Besides, the “time brain levels stayed >IC50 value of 0.2 μM” value in [4] (PO 50 mg/kg + sodium benzoate 400 mg/kg IP) was “over 3 h”. The AUCBrain in [4] (setting [12]) amounted to 5.48 nmol·h/g. Also, in series [4] (PO 50 mg/kg monotherapy), the “time brain concentrations were >IC50” value is recorded as “up to 1 h”. Also, the AUCPO-Brain in series [4] (PO 50 mg/kg monotherapy, brain) is on record as 2.42 nmol·h/g. Moreover, the “oral bioavailability (AUCPO/IV)” value in series [4] (PO 50 mg/kg vs IV 10 mg/kg) was found to be 47.7%. Moreover, the “enhancement in both plasma and brain exposures” value in [4] (combination with sodium benzoate vs D-DOPA alone) was > 200%. Also, the “plasma and brain exposure (in words)” value in series [5] was “higher plasma and brain exposure”. For the same compound, in [6], the “metabolic stability (in words)” value is given as “good metabolic stability; also recorded: superior in vitro stability”. The solubility in vehicle entry in series [7] is “poor solubility”. For the same compound, in series [8], the mode of inhibition entry was “noncompetitive, allosteric inhibitor of GCPII”. The inhibition constant (Ki) (as a rule, the equilibrium dissociation constant of an inhibitor or competing ligand from its target) in [9] was ~400 nM.

Take `N[C@@H](Cc1ccc(O)c(O)c1)C(=O)O` [L-DOPA]: in series [1], the “GCPII inhibitory potency (in words)” value is on record as “sub-micromolar potencies; also recorded: submicromolar inhibitor of GCPII”. The half-maximal inhibitory concentration (IC50) in [1] (setting [10]) was 400 nM; in [1] (setting [11]), 600 nM.
